# Test results from ChEMBL document CHEMBL3826930, “Antitumor activities of biscoumarin and dihydropyran derivatives” (Bioorg Med Chem Lett, 2016).
# Key:
# [1] = Antiproliferative activity against human HuTu 80 cells after 48 hrs by MTT assay; assay type: functional, cell-based; settings: HuTu80, 48 h
# 4T1 [2] = test: Antiproliferative activity against mouse 4T1 cells after 48 hrs by MTT assay; assay type: functional, cell-based; settings: 4T1, 48 h
# [3] = Antiproliferative activity against human PANC1 cells after 48 hrs by MTT assay; assay type: functional, cell-based; settings: PANC-1, 48 h
# Mus musculus [4] = test: Acute toxicity in Kunming mouse assessed as sleep pattern abnormality at 500 mg/kg, administered as single dose after 14 days; assay type: organism-based; settings: in vivo, 336 h
# Mus musculus [5] = test: Acute toxicity in Kunming mouse assessed as structural abnormality in liver at 500 mg/kg, administered as single dose after 14 days by hematoxylin and eosin staining based histological analysis; assay type: organism-based; settings: in vivo, 336 h
# Mus musculus [6] = test: Acute toxicity in Kunming mouse assessed as structural abnormality in kidney at 500 mg/kg, administered as single dose after 14 days by hematoxylin and eosin staining based histological analysis; assay type: organism-based; settings: in vivo, 336 h
# [7] = (§1) Cytotoxicity against HUVEC assessed as reduction in cell survival after 48 hrs by MTT assay; assay type: cell-based, Homo sapiens; settings: human, HUVEC cells
# HUVEC = test: as §1; assay type: cell-based, Homo sapiens; settings: Homo sapiens, HUVEC, 48 h
# [8] = (§2) Cytotoxicity against HEK293 cells assessed as reduction in cell survival after 48 hrs by MTT assay; assay type: cell-based, Homo sapiens; settings: human, HEK293 cells
# HEK293 [9] = test: as §2; assay type: cell-based, Homo sapiens; settings: Homo sapiens, HEK293, 48 h
# HuTu80 = test: Selectivity index, ratio of IC50 for HUVEC to IC50 for human HuTu 80 cells
# 4T1 [10] = test: Selectivity index, ratio of IC50 for HUVEC to IC50 for mouse 4T1 cells
# PANC-1 = test: Selectivity index, ratio of IC50 for HUVEC to IC50 for human PANC1 cells
# HEK293 [11] = test: Selectivity index, ratio of IC50 for HEK293 cells to IC50 for human HuTu 80 cells; assay type: functional
# HEK293 [12] = test: Selectivity index, ratio of IC50 for HEK293 cells to IC50 for mouse 4T1 cells; assay type: functional
# HEK293 [13] = test: Selectivity index, ratio of IC50 for HEK293 cells to IC50 for human PANC1 cells; assay type: functional
# Mus musculus [14] = test: Acute toxicity in Kunming mouse assessed as survival at 500 mg/kg, administered as single dose measured on day 14 post dose; assay type: organism-based; settings: in vivo
# Mus musculus [15] = test: Acute toxicity in Kunming mouse assessed as physical/abnormal changes in skin at 500 mg/kg, administered as single dose after 14 days; assay type: organism-based; settings: in vivo, 336 h
# Mus musculus [16] = test: Acute toxicity in Kunming mouse assessed as physical/abnormal changes in fur at 500 mg/kg, administered as single dose after 14 days; assay type: organism-based; settings: in vivo, 336 h
# Mus musculus [17] = test: Acute toxicity in Kunming mouse assessed as physical/abnormal changes in eyes at 500 mg/kg, administered as single dose after 14 days; assay type: organism-based; settings: in vivo, 336 h
# Mus musculus [18] = test: Acute toxicity in Kunming mouse assessed as physical/abnormal changes in mucus membrane at 500 mg/kg, administered as single dose after 14 days; assay type: organism-based; settings: in vivo, 336 h
# Mus musculus [19] = test: Acute toxicity in Kunming mouse assessed as tremor induction at 500 mg/kg, administered as single dose after 14 days; assay type: organism-based; settings: in vivo, 336 h
# Mus musculus [20] = test: Acute toxicity in Kunming mouse assessed as induction of salivation at 500 mg/kg, administered as single dose after 14 days; assay type: organism-based; settings: in vivo, 336 h
# Mus musculus [21] = test: Acute toxicity in Kunming mouse assessed as behavior pattern abnormality at 500 mg/kg, administered as single dose after 14 days; assay type: organism-based; settings: in vivo, 336 h
structure (smiles),measurement,setting,value
N#CC1=C(N)OC2=C(C(=O)CC2)C1c1cccc(C#N)c1 (stereo not drawn),IC50,[1],191 µg/mL
same,IC90,[1],381 µg/mL
same,IC50,4T1 [2],125 µg/mL
same,IC90,4T1 [2],299 µg/mL
same,IC50,[3],143 µg/mL
same,IC90,[3],317 µg/mL
CC1(C)CC(=O)C2=C(C1)OC(N)=C(C#N)C2c1cc(C(F)(F)F)cc(C(F)(F)F)c1 (stereo not drawn),IC50,[1],> 300 µg/mL
same,IC90,[1],> 500 µg/mL
same,IC50,4T1 [2],> 300 µg/mL
same,IC90,4T1 [2],> 500 µg/mL
same,IC50,[3],> 300 µg/mL
same,IC90,[3],> 500 µg/mL
CC(C)c1ccc(C2C(C#N)=C(N)Oc3c2c(=O)oc2ccccc32)cc1 (stereo not drawn),IC50,[1],238 µg/mL
same,IC90,[1],> 500 µg/mL
same,IC50,4T1 [2],> 300 µg/mL
same,IC90,4T1 [2],> 500 µg/mL
same,IC50,[3],256 µg/mL
same,IC90,[3],> 500 µg/mL
N#CC1=C(N)OC2=C(C(=O)CC2)C1c1ccc(Cl)cc1Cl (stereo not drawn),IC50,[1],150 µg/mL
same,IC90,[1],302 µg/mL
same,IC50,4T1 [2],127 µg/mL
same,IC90,4T1 [2],307 µg/mL
same,IC50,[3],156 µg/mL
same,IC90,[3],325 µg/mL
CC1(C)CC(=O)C2=C(C1)OC(N)=C(C#N)C2c1ccc(S(C)(=O)=O)cc1 (stereo not drawn),IC50,[1],> 300 µg/mL
same,IC90,[1],> 500 µg/mL
same,IC50,4T1 [2],> 300 µg/mL
same,IC90,4T1 [2],> 500 µg/mL
same,IC50,[3],> 300 µg/mL
same,IC90,[3],> 500 µg/mL
CC(C)(C)c1ccc(C2C(C#N)=C(N)OC3=C2C(=O)CC3)cc1 (stereo not drawn),IC50,[1],103 µg/mL
same,IC90,[1],233 µg/mL
same,IC50,4T1 [2],117 µg/mL
same,IC90,4T1 [2],288 µg/mL
same,IC50,[3],219 µg/mL
same,IC90,[3],435 µg/mL
COc1ccc(C(c2c(O)c3ccccc3oc2=O)c2c(O)c3ccccc3oc2=O)cc1,Activity,Mus musculus [4],Non-toxic
same,Activity,Mus musculus [5],Non-toxic
same,Activity,Mus musculus [6],Non-toxic
same,IC50,[1],53.8 µg/mL
same,IC90,[1],103 µg/mL
same,IC50,4T1 [2],85.7 µg/mL
same,IC90,4T1 [2],167 µg/mL
same,IC50,[3],42.5 µg/mL
same,IC90,[3],82.5 µg/mL
same,IC90 at 48 h,[7],363 µg/mL
same,IC50,HUVEC,199 µg/mL
same,IC90 at 48 h,[8],322 µg/mL
same,IC50,HEK293 [9],165 µg/mL
same,Ratio IC50,HuTu80,3.7
same,Ratio IC50,4T1 [10],2.3
same,Ratio IC50,PANC-1,4.7
same,Ratio IC50,HEK293 [11],3.1
same,Ratio IC50,HEK293 [12],1.9
same,Ratio IC50,HEK293 [13],3.9
same,Activity,Mus musculus [14],Non-toxic
same,Activity,Mus musculus [15],Non-toxic
same,Activity,Mus musculus [16],Non-toxic
same,Activity,Mus musculus [17],Non-toxic
same,Activity,Mus musculus [18],Non-toxic
same,Activity,Mus musculus [19],Non-toxic
same,Activity,Mus musculus [20],Non-toxic
same,Activity,Mus musculus [21],Non-toxic
N#Cc1ccc(C(c2c(O)c3ccccc3oc2=O)c2c(O)c3ccccc3oc2=O)cc1,Activity,Mus musculus [4],Non-toxic
same,Activity,Mus musculus [5],Non-toxic
same,Activity,Mus musculus [6],Non-toxic
same,IC50,[1],47.6 µg/mL
same,IC90,[1],98.3 µg/mL
same,IC50,4T1 [2],51.5 µg/mL
same,IC90,4T1 [2],102 µg/mL
same,IC50,[3],93.5 µg/mL
same,IC90,[3],202 µg/mL
same,IC90 at 48 h,[7],322 µg/mL
same,IC50,HUVEC,162 µg/mL
same,IC90 at 48 h,[8],343 µg/mL
same,IC50,HEK293 [9],180 µg/mL
same,Ratio IC50,HuTu80,3.4
same,Ratio IC50,4T1 [10],3.1
same,Ratio IC50,PANC-1,1.73
same,Ratio IC50,HEK293 [11],3.8
same,Ratio IC50,HEK293 [12],3.5
same,Ratio IC50,HEK293 [13],1.9
same,Activity,Mus musculus [14],Non-toxic
same,Activity,Mus musculus [15],Non-toxic
same,Activity,Mus musculus [16],Non-toxic
same,Activity,Mus musculus [17],Non-toxic
same,Activity,Mus musculus [18],Non-toxic
same,Activity,Mus musculus [19],Non-toxic
same,Activity,Mus musculus [20],Non-toxic
same,Activity,Mus musculus [21],Non-toxic
COc1ccccc1C(c1c(O)c2ccccc2oc1=O)c1c(O)c2ccccc2oc1=O,Activity,Mus musculus [4],Non-toxic
same,Activity,Mus musculus [5],Non-toxic
same,Activity,Mus musculus [6],Non-toxic
same,IC50,[1],17.9 µg/mL
same,IC90,[1],110 µg/mL
same,IC50,4T1 [2],52.2 µg/mL
same,IC90,4T1 [2],133 µg/mL
same,IC50,[3],62.1 µg/mL
same,IC90,[3],110 µg/mL
same,IC90 at 48 h,[7],269 µg/mL
same,IC50,HUVEC,119 µg/mL
same,IC90 at 48 h,[8],282 µg/mL
same,IC50,HEK293 [9],117 µg/mL
same,Ratio IC50,HuTu80,6.7
same,Ratio IC50,4T1 [10],2.3
same,Ratio IC50,PANC-1,1.9
same,Ratio IC50,HEK293 [11],6.5
same,Ratio IC50,HEK293 [12],2.2
same,Ratio IC50,HEK293 [13],1.9
same,Activity,Mus musculus [14],Non-toxic
same,Activity,Mus musculus [15],Non-toxic
same,Activity,Mus musculus [16],Non-toxic
same,Activity,Mus musculus [17],Non-toxic
same,Activity,Mus musculus [18],Non-toxic
same,Activity,Mus musculus [19],Non-toxic
same,Activity,Mus musculus [20],Non-toxic
same,Activity,Mus musculus [21],Non-toxic
CC1(C)CC(=O)C2=C(C1)OC(N)=C(C#N)C2c1cc(F)c(F)c(F)c1 (stereo not drawn),IC50,[1],297 µg/mL
same,IC90,[1],> 500 µg/mL
same,IC50,4T1 [2],241 µg/mL
same,IC90,4T1 [2],> 500 µg/mL
same,IC50,[3],283 µg/mL
same,IC90,[3],> 500 µg/mL
N#CC1=C(N)Oc2c(c(=O)oc3ccccc23)C1c1ccc(Br)cc1 (stereo not drawn),IC50,[1],> 300 µg/mL
same,IC90,[1],447 µg/mL
same,IC50,4T1 [2],> 300 µg/mL
same,IC90,4T1 [2],> 500 µg/mL
same,IC50,[3],> 300 µg/mL
same,IC90,[3],> 500 µg/mL
N#CC1=C(N)Oc2c(c(=O)oc3ccccc23)C1c1ccc(C#N)cc1 (stereo not drawn),IC50,[1],> 300 µg/mL
same,IC90,[1],> 500 µg/mL
same,IC50,4T1 [2],> 300 µg/mL
same,IC90,4T1 [2],> 500 µg/mL
same,IC50,[3],> 300 µg/mL
same,IC90,[3],> 500 µg/mL
COc1cccc(C2C(C#N)=C(N)OC3=C2C(=O)CC(C)(C)C3)c1 (stereo not drawn),IC50,[1],283 µg/mL
same,IC90,[1],> 500 µg/mL
same,IC50,4T1 [2],248 µg/mL
same,IC90,4T1 [2],> 500 µg/mL
same,IC50,[3],> 300 µg/mL
same,IC90,[3],> 500 µg/mL
N#CC1=C(N)Oc2c(c(=O)oc3ccccc23)C1c1ccc([N+](=O)[O-])cc1 (stereo not drawn),IC50,[1],97 µg/mL
same,IC90,[1],187 µg/mL
same,IC50,4T1 [2],142 µg/mL
same,IC90,4T1 [2],289 µg/mL
same,IC50,[3],218 µg/mL
same,IC90,[3],348 µg/mL
COc1cc(C2C(C#N)=C(N)OC3=C2C(=O)CC3)cc(OC)c1OC (stereo not drawn),IC50,[1],185 µg/mL
same,IC90,[1],360 µg/mL
same,IC50,4T1 [2],153 µg/mL
same,IC90,4T1 [2],365 µg/mL
same,IC50,[3],200 µg/mL
same,IC90,[3],391 µg/mL
